In US6867213B2, “(2S)-2-(adamantan-1-ylmethoxycarbonylamino)-3-(4-(2-(1,4,5,6-tetrhydropyrimidin-2-ylcarbamoyl)ethyl)benzoylamino)propionic acid isopropyl ester, its preparation and its use” (Aventis Pharma Deutschland GmbH, priority 2000, dated 2005):
Structures can show the parent of a compound that is named as a salt.

Key:
[1] = test system: thyroparathyroidectomized (TPTX) rats; test: PTH-induced hypercalcemia in the TPTX rat model of bone resorption; format: in vivo, rat (male Sprague Dawley); details: PTH treated TPTX rats; s.c. twice at 30 mg/kg, at time 0 and 3 h after start of PTH infusion; serum collected at 6 hours
Excerpt: 3) Pharmacological Testing: PTH-Induced Hypercalcemia in the TPTX Rat Model of Bone Resorption
In this in vivo model a stimulation of bone resorption is induced in thyroparathyroidectomized (TPTX) rats by the infusion of parathyroid hormone (PTH). The changes in bone resorption are monitored by measuring the serum calcium concentration which is directly related to the extent of bone resorption.
Male Sprague Dawley rats (OFA-IFFA CREDO, France) weighting 150-200 g were thyroparathyroidectomized by the supplier. The rats were allowed free access to a standard commercial pelleted diet containing 7 g Ca/kg (UAR) and Eau de Volvic water. The success of thyroparathyroidectomy was tested by measuring serum calcium concentrations 8 days after operation in overnight fasted animals. Rats were considered as TPTX when the serum calcium level was <80 mg/l.
For treatment with PTH, rat PTH(1-34) (Bachem) was dissolved in 0.15 M sodium chloride solution containing 2% Cys-HCl and delivered via osmotic minipumps (ALZET 2001D) at 200 pmol/kg/h. […]
Serum total calcium concentrations (=calcemia) were measured colorimetrically (Ciba-Corning) using a IEMS Labsystems microplate reader at 540 nm. The differences between the mean values of calcemia in the groups were analysed for variance and by Dunnett's test. The activity of the test compound was calculated as % effect according to the formula: [formula]

| melting point | SMILES | % effect (on calcemia = serum total calcium concentration) [1] |
| --- | --- | --- |
| 208 to 210 °C | CC(C)OC(=O)[C@H](CNC(=O)c1ccc(CCC(=O)NC2=NCCCN2)cc1)NC(=O)OCC12CC3CC(CC(C3)C1)C2 (as salt: hydrochloride) [formula IIc, (2S)-2-(Adamantan-1-ylmethoxycarbonylamino)-3-(4-(2-(1,4,5,6-tetrahydropyrimidin-2-ylcarbamoyl)ethyl)benzoylamino)propionic Acid Isopropyl Ester Hydrochloride] |  |
|  | CC(C)OC(=O)[C@H](CNC(=O)c1ccc(CCC(=O)NC2=NCCCN2)cc1)NC(=O)OCC12CC3CC(CC(C3)C1)C2 [formula IIc, (2S)-2-(Adamantan-1-ylmethoxycarbonylamino)-3-(4-(2-(1,4,5,6-tetrahydropyrimidin-2-ylcarbamoyl)ethyl)benzoylamino)propionic Acid Isopropyl Ester Hydrochloride] | −97% |
